Publication PMC12677607, “Identification of a Pair of Linear or Cyclic Naturally Inspired Bifunctional Lipopeptide Antibiotics That Overcome Antimicrobial Resistance” (Advanced Science, 2025)
Bridge positions count the residues as written; N and C are the ends. Square brackets hold non-standard residues; d marks the D form. Peptide text beside a SMILES is read from it. * marks the point of attachment. Myristoyl = CCCCCCCCCCCCCC(=O)*; dOrn = NCCC[C@@H](N)C(=O)O; Orn = NCCC[C@H](N)C(=O)O; Dab = NCC[C@H](N)C(=O)O

What was measured:
Format in all cases: cell-based
[1] = system: Candida albicans ATCC 64550; conditions: ATCC 64550, 16 h
Procedure: (§1) All MIC assays were performed two independent times (n = 2) in 96‐well plates using a broth micro‐dilution method. The lowest concentration of that inhibited visible microbial growth was recorded as the MIC value.
(§2) For fungal strains, overnight cultures were diluted 2000‐fold in YPD broth. 100 µL of diluted cells was mixed with 100 µL of YPD broth containing each peptide ranging from […] 64 to 0.125 µg mL^−1 at 2‐fold serial dilutions.

[2] = system: Candida albicans ATCC 10231; test: MIC assay (YPD broth); conditions: Table S11; YPD broth, 30 °C, 16 h, n = 2
Procedure: as §1, §2

Escherichia coli DH5α = test: MIC assay (broth micro-dilution); conditions: Table S11; LB broth, 37 °C, 16 h, n = 2
Procedure: as §1
(§3) For most of bacterial strains, overnight cultures were diluted 5000‐fold in LB broth. For E. faecium and S. aureus, overnight cultures were diluted 1000‐ and 10000‐fold in LB broth, respectively. 100 µL of diluted cells was mixed with 100 µL of LB broth containing each peptide ranging from 64 to 0.125 µg mL^−1 at 2‐fold serial dilutions.

Shigella Castellani LXX = test: MIC assay (broth micro-dilution); conditions: Table S11; LB broth, 37 °C, 16 h, n = 2
Procedure: as §1, §3

[3] = system: Salmonella typhimurium LXX; test: microbe, parasite or virus in culture; conditions: murium LXX, 16 h
Procedure: as §1, §3

[4] = system: Enterococcus faecium 35682; test: microbe, parasite or virus in culture
Procedure: as §1, §3

[5] = system: Staphylococcus aureus USA300; test: microbe, parasite or virus in culture
Procedure: as §1, §3

[6] = system: Streptococcus mutans ATCC 25175; test: microbe, parasite or virus in culture; conditions: ATCC 25175, 16 h
Procedure: as §1, §3

[7] = system: Acinetobacter baumannii 1104008; test: microbe, parasite or virus in culture; conditions: Table S11; LB broth, 37 °C, 16 h, n = 2
Procedure: as §1, §3

[8] = system: Enterococcus faecalis ATCC 29212; test: microbe, parasite or virus in culture; conditions: ATCC 29212, 16 h
Procedure: as §1, §3

[9] = system: Klebsiella pneumoniae CRKP HS11286; test: microbe, parasite or virus in culture; conditions: CRKP HS11286, 16 h
Procedure: as §1, §3

[10] = system: Streptococcus pyogenes ATCC 19615; test: microbe, parasite or virus in culture; conditions: Table S11; LB broth, 37 °C, 16 h, n = 2
Procedure: as §1, §3

[11] = system: Klebsiella pneumoniae NCTC 5056; test: microbe, parasite or virus in culture; conditions: NCTC 5056, 16 h
Procedure: as §1, §3

[12] = system: Pseudomonas aeruginosa ATCC 9027; test: microbe, parasite or virus in culture; conditions: ATCC 9027, 16 h
Procedure: as §1, §3

[13] = system: Staphylococcus aureus Newman; test: microbe, parasite or virus in culture; conditions: Newman, 16 h
Procedure: as §1, §3

[14] = system: Acinetobacter baumannii P53; test: microbe, parasite or virus in culture; conditions: Table S11; LB broth, 37 °C, 16 h, n = 2
Procedure: as §1, §3

[15] = system: Vibrio alginolyticus XSBZ14; test: microbe, parasite or virus in culture; conditions: 16 h
Procedure: as §1, §3

Enterococcus faecalis 26 = test: microbe, parasite or virus in culture; conditions: 26, 16 h
Procedure: as §1, §3

[16] = system: Klebsiella pneumoniae ATCC 13883; test: microbe, parasite or virus in culture; conditions: ATCC 13883, 16 h
Procedure: as §1, §3

[17] = system: Acinetobacter baumannii ATCC 19606; test: microbe, parasite or virus in culture; conditions: ATCC 19606, 16 h
Procedure: as §1, §3

[18] = system: Klebsiella pneumoniae CRKP 5452; test: microbe, parasite or virus in culture; conditions: Table S11; LB broth, 37 °C, 16 h, n = 2
Procedure: as §1, §3

[19] = system: Salmonella enterica ATCC 14028; test: microbe, parasite or virus in culture; conditions: ATCC 14028, 16 h
Procedure: as §1, §3

[20] = system: Staphylococcus aureus ATCC 25923; test: microbe, parasite or virus in culture; conditions: ATCC 25923, 16 h
Procedure: as §1, §3

Enterococcus faecalis 28 = test: microbe, parasite or virus in culture; conditions: 28, 16 h
Procedure: as §1, §3

[21] = system: Acinetobacter baumannii ATCC 17978; test: microbe, parasite or virus in culture; conditions: ATCC 17978, 16 h
Procedure: as §1, §3

[22] = system: Staphylococcus aureus ATCC 6538; test: microbe, parasite or virus in culture; conditions: ATCC 6538, 16 h
Procedure: as §1, §3

[23] = system: Pseudomonas aeruginosa PAO1; test: microbe, parasite or virus in culture
Procedure: as §1, §3

[24] = system: S. aureus USA300 Cls2A338stop; test: MIC against telomycin-resistant mutant
Procedure: as §1, §3
(§4) Overnight cultures S. aureus USA300 were diluted 10000‐fold in LB broth, and 100 µL of dilute cell suspension was added to 96‐well plates containing 100 µL serially diluted aquicidine C4, telomycin, and daptomycin (with 15 mM CaCl2). Overnight cultures K. pneumoniae CRKP5452 were diluted 5000‐fold in LB broth, and 100 µL of dilute cell suspension was added to 96‐well plates containing 100 µL serially diluted aquicidine L and colistin. After an incubation of 24 h at 37 °C, the MIC value was determined. […] The MIC value was recorded as described above, and the process was repeated daily for 21 days. Experiments were performed two independent times (n = 2).
(§5) Single‐nucleotide polymorphisms (SNPs) for telomycin‐, daptomycin‐ or colistin‐resistant mutants were identified using SNIPPY by mapping DNBSEQ‐seq reads to the reference genome of S. aureus USA300 or K. pneumoniae CRKP5452.

[25] = system: S. aureus USA300 MprFT345A; test: MIC against daptomycin-resistant mutant; conditions: Figure S127b, daptomycin-resistant mutant
Procedure: as §1, §3, §4, §5

[26] = Table S11, LB broth, 37 °C, 16 h, n = 2

CCCCCCCCCCCCCC(=O)N[C@@H](CCCN)C(=O)N[C@H](Cc1ccc(O)cc1)C(=O)N[C@@H](C(=O)N[C@H]1C(=O)N[C@H](CCCN)C(=O)N[C@@H](CCCN)C(=O)N[C@H](C(C)C)C(=O)N[C@@H]([C@@H](C)CC)C(=O)N[C@@H](CC(C)C)C(=O)N[C@H](CCCN)C(=O)N[C@@H]([C@@H](C)O)C(=O)N[C@@H](C)C(=O)O[C@H]1C)C(C)C [synAQU6-C4] (Myristoyl-[Orn][dY][dV][dT][dOrn][Orn][dV]IL[dOrn]TA; ester 4-C)
> 64 µg/mL: MIC Candida albicans ATCC 64550 [1] | MIC Candida albicans ATCC 10231 [2] | MIC Shigella Castellani LXX (Shigella Castellani LXX) | MIC Staphylococcus aureus USA300 ([5]; USA300, 16 h) | MIC Enterococcus faecalis ATCC 29212 [8] | MIC Pseudomonas aeruginosa ATCC 9027 [12] | MIC Staphylococcus aureus Newman [13] | MIC Acinetobacter baumannii P53 [14] | MIC Vibrio alginolyticus XSBZ14 [15] | MIC Acinetobacter baumannii ATCC 19606 [17] | MIC Enterococcus faecalis 28 (Enterococcus faecalis 28)
32 µg/mL: MIC Salmonella typhimurium LXX [3] | MIC Enterococcus faecium 35682 ([4]; 35682, 16 h) | MIC Acinetobacter baumannii 1104008 [7] | MIC Klebsiella pneumoniae CRKP HS11286 [9] | MIC Klebsiella pneumoniae NCTC 5056 [11] | MIC Klebsiella pneumoniae ATCC 13883 [16] | MIC Salmonella enterica ATCC 14028 [19] | MIC Acinetobacter baumannii ATCC 17978 [21]
16 µg/mL: MIC Klebsiella pneumoniae CRKP 5452 [18] | MIC Staphylococcus aureus ATCC 25923 [20] | MIC Staphylococcus aureus ATCC 6538 [22] | MIC Pseudomonas aeruginosa PAO1 ([23]; PAO1, 16 h)
2 µg/mL: MIC Enterococcus faecalis 26 (Enterococcus faecalis 26)
8 µg/mL: MIC Escherichia coli DH5α (Escherichia coli DH5α)
4 µg/mL: MIC Streptococcus mutans ATCC 25175 [6] | MIC Streptococcus pyogenes ATCC 19615 [10]

Telomycin
4 µg/mL: antibacterial activity (MIC) S. aureus USA300 MprFT345A [25] | antibacterial activity (MIC) S. aureus USA300 ([5]; Figure S127b, wild type)
32 fold: increase in MIC against resistant mutant compared to wild type ([24]; S. aureus USA300 Cls2^A338stop vs wild type)
128 µg/mL: antibacterial activity (MIC) S. aureus USA300 Cls2A338stop ([24]; Figure S127b, telomycin-resistant mutant)

CCCCCCCCCCCCCC(=O)N[C@@H](Cc1ccccc1)C(=O)N[C@@H](CCCN)C(=O)N[C@H]1CCCNC(=O)CNC(=O)[C@H](CCN)NC(=O)[C@@H](Cc2ccc(O)cc2)NC(=O)[C@H](CC(C)C)NC(=O)[C@H]([C@@H](C)CC)NC(=O)[C@@H](C(C)C)NC1=O [synAQU2-C3] (Myristoyl-F[Orn][Orn][dV]IL[dY][Dab]G; lactam 3-C)
4 µg/mL: MIC Acinetobacter baumannii ATCC 17978 [21]
2 µg/mL: MIC Streptococcus pyogenes ATCC 19615 [10]
16 µg/mL: MIC Vibrio alginolyticus XSBZ14 [15] | MIC Staphylococcus aureus ATCC 25923 [20] | MIC Staphylococcus aureus ATCC 6538 [22]
8 µg/mL: MIC Enterococcus faecium 35682 [4, 26] | MIC Streptococcus mutans ATCC 25175 [6] | MIC Acinetobacter baumannii 1104008 [7] | MIC Acinetobacter baumannii P53 [14] | MIC Enterococcus faecalis 26 (Enterococcus faecalis 26)
32 µg/mL: MIC Enterococcus faecalis ATCC 29212 [8] | MIC Klebsiella pneumoniae NCTC 5056 [11] | MIC Pseudomonas aeruginosa PAO1 [23, 26]
> 64 µg/mL: MIC Candida albicans ATCC 64550 [1] | MIC Candida albicans ATCC 10231 [2] | MIC Escherichia coli DH5α (Escherichia coli DH5α) | MIC Shigella Castellani LXX (Shigella Castellani LXX) | MIC Salmonella typhimurium LXX [3] | MIC Staphylococcus aureus USA300 [5, 26] | MIC Klebsiella pneumoniae CRKP HS11286 [9] | MIC Pseudomonas aeruginosa ATCC 9027 [12] | MIC Staphylococcus aureus Newman [13] | MIC Klebsiella pneumoniae ATCC 13883 [16] | MIC Acinetobacter baumannii ATCC 19606 [17] | MIC Klebsiella pneumoniae CRKP 5452 [18] | MIC Salmonella enterica ATCC 14028 [19] | MIC Enterococcus faecalis 28 (Enterococcus faecalis 28)
